Bridge positions count the residues as written; N and C are the ends. Ends that are not written are not given here.
B1: mBD-1: murine β defensin, tested as lysates of SW 13 cells transfected with full length mBD-1 cDNA (protein)
chain: MKTHYFLLVMICFLFSQMEPGVGILTSLGRRTDQYKCLQHGGFCLRSSCPSNTKLQGTCKPDKPNCCKS

How the values were obtained:
Escherichia coli [1] = assay: Broth culture assay of synthetic hBD-1 (optical density); format: cell-based; details: 500 μg synthetic hBD-1, 1×10^4 bacterial cells in 200 μl 0.25×LB, 7 hours, background subtracted; untreated 0.127
Experimental: A broth culture assay was also used to assess the antimicrobial activity of hBD-1 directed against Escherichia coli. In this instance, 1×10^4 bacterial cells in 200 μl of 0.25×LB broth were incubated at 37DC in the presence or absence of 500 μg of synthetic hBD-1. After 7 hours, the optical density at 630 nm of the cultures was recorded as a measure of bacterial growth. After subtraction of background due to growth medium, the average optical density of the untreated cultures was 0.127 whereas those containing hBD-1 was 0.004, indicating nearly complete suppression of bacterial growth.

Pseudomonas aeruginosa [2] = assay: Colony count killing and salt dependence assay of synthetic hBD-1; format: cell-based
Experimental: FIG. 7 is a graph depicting salt sensitivity of hBD-1 antimicrobial activity against Pseudomonas aeruginosa. Synthetic hBD-1 was incubated with 5×10^4 colony forming units of P. aeruginosa in 100 μl of 10 mM phosphate buffer (pH 7.4) and the indicated concentrations of NaCl. Reactions were then incubated at 37° C. for 20 minutes. Serial dilutions were plated and colony counts were performed the following day.
(§1) Essentially, for assays involving Pseudomonas and Escherichia coli, approximately 5×10^4 bacterial cells were exposed to about 50 μg to 500 μg of synthetic hBD-1 in 10 mM phosphate buffer (pH 7.4) in a reaction volume of 100 μl. Samples were incubated at 37° C. for 20 minutes and were then diluted to 1 ml total volume with the corresponding test buffer. A volume of 100 μl of this solution and of two 10-fold serial dilutions thereof, were plated and incubated overnight at 37° C. to facilitate colony formation.
Salt dependence of antibiotic activity was measured essentially as described for α-defensins (Lehrer et al., 1983, supra; Selsted et al., 1984, supra). Briefly, approximately 5×10^4 bacterial cells were exposed to 50 μg of synthetic hBD-1 in 10 mM phosphate buffer (pH 7.4) containing varying concentrations of NaCl in a reaction volume of 100 μl. Reactions were incubated at 37° C. for 20 minutes and were then diluted to 1 ml total volume with the corresponding test buffer. […]

E. coli = assay: Colony count killing assay of synthetic hBD-1; format: cell-based, Escherichia coli; details: synthetic hBD-1, low NaCl
Experimental: as §1

Escherichia coli [3] = assay: Antibiotic activity of extracts of 293 cells transfected with hBD-1 cDNA; format: cell-based; details: extracts of kidney cells transfected with full length hBD-1 cDNA; mock transfected did not
Experimental: (§2) Human embryonal kidney cells (293) (ATCC CRL 1573) grown in the absence of antibiotics were transfected with the pCMV mammalian reporter vector (Clontech) containing the full length hBD-1 cDNA. Transfected and control mock transfected cells were harvested at 24 to 48 hours postransfection, pelleted by centrifugation, resuspended in 10 mM phosphate buffer (pH 7.4) and lysed by brief sonication. Cell debris was removed by centrifugation and the resulting supernatant was tested for antibiotic activity. Approximately 10^3 or 10^4 bacteria were exposed to cell extracts for 2 hours in 10 mM phosphate buffer (pH 7.4) and cell viability was measured by plating several dilutions and counting colonies the following day.

Pseudomonas aeruginosa [4] = assay: as above; format: cell-based; details: extracts of kidney cells transfected with full length hBD-1 cDNA; mock transfected did not
Experimental: as §2

Staphylococcus aureus = assay: as above; format: cell-based; details: extracts of kidney cells transfected with full length hBD-1 cDNA; mock transfected did not
Experimental: as §2

Escherichia coli D31 = assay: Diffusion and liquid broth assays of lysates of mBD-1 transfected cells, incl. salt and pH dependency; format: cell-based
Experimental: (§3) FIG. 14 is a series of graphs depicting the results of antibacterial assays on mBD-1. In FIGS. 14A, 14B and 14C there is shown the results of antibacterial liquid broth coincubation assays. E. coli (FIG. 14A), S. aureus (FIG. 14B) and P. aertiginosa (FIG. 14C) were added at a concentration of 10^3 to 10^4 cfu to 50 μl of lysates obtained from cells transfected with vector containing full length mBD-1 cDNA (empty circles) or cells transfected with the vector alone (filled circles). Each circle shown represents the results of an individual transfection experiment. In FIG. 14D there is shown the salt sensitivity of the antimicrobial activity of mBD-1. Extracts of mBD-1 transfected cells were incubated with 5×10^4 colony-forming units of E. coli D31 in 100 mM phosphate buffer (pH 7.4) and the indicated concentrations of NaCl. After incubation at 37° C. for 1 hour, serial dilutions of bacteria were plated and colonies were counted the following day.
To test the antibacterial activity of mBD-1, lysates obtained from cells transfected with mBD-1 cDNA positioned in a transfection vector were analyzed. A clinical isolate of Staphylococcus aureus, Escherichia coli D31 (Steiner et al., 1981, Nature 292:246-248), and a clinical isolate of Pseudomonas aeruginosa were used as test organisms in both diffusion assays and liquid broth assays. […]
(§4) Antibacterial liquid broth assays were performed as previously described for α-defensins (Steiner et al., 1981, Nature 292:246-248). […] Cell viability was measured by plating several dilutions and counting colonies the following day. […]
To analyze the salt dependency of the activity of mBD-1 against E. coli D31, NaCl was added to aliquots of the agarose solution to obtain final concentrations of NaCl of 50 mM, 100 mM, 200 mM and 500 mM. The exact concentration of NaCl in the solutions was measured using Na or Cl sensitive electrodes (Microelectrodes). […]

[5] = test system: Pseudomonas aeruginosa (clinical isolate); assay: Diffusion and liquid broth assays of lysates of mBD-1 transfected cells; format: cell-based; details: lysates of SW 13 cells transfected with mBD-1 cDNA
Experimental: as §3
(§5) To test the antibacterial activity of mBD-1, lysates obtained from cells transfected with mBD-1 cDNA positioned in a transfection vector were analyzed. […]
as §4

[6] = test system: Staphylococcus aureus (clinical isolate); assay: as above; format: cell-based; details: lysates of SW 13 cells transfected with mBD-1 cDNA
Experimental: as §3, §5, §4

Molecule	average optical density at 630 nm of cultures (bacterial growth) (Escherichia coli [1])	hBD-1 concentrations at which bacterial killing was observed (Pseudomonas aeruginosa [2]; low NaCl, 10 mM phosphate buffer pH 7.4, 37° C., 20 minutes) [µg/mL]	bactericidal activity (Pseudomonas aeruginosa [2]; synthetic hBD-1, low NaCl)	bactericidal activity (E. coli)	antibiotic activity of transfected cell extracts (Escherichia coli [3])	antibiotic activity of transfected cell extracts (Pseudomonas aeruginosa [4])	antibiotic activity of transfected cell extracts (Staphylococcus aureus)	antimicrobial activity of lysates (Escherichia coli D31; lysates of SW 13 cells transfected with mBD-1 cDNA, diffusion and liquid broth assays)	antimicrobial activity in acidic pH (Escherichia coli D31; lysates of mBD-1 transfected cells, acidic pH)	antimicrobial activity in high concentrations of NaCl (Escherichia coli D31; lysates of mBD-1 transfected cells, high NaCl)	antimicrobial activity of lysates [5]	antimicrobial activity of lysates [6]
hBD-1: human β-defensin 1; synthetic mature peptide with disulfide bridges Cys5-Cys34, Cys12-Cys27, Cys17-Cys35; also tested as extracts of cDNA-transfected cells (DHYNCVSSGGQCLYSACPIFTKIQGTCYRGKAKCCK; disulfide 12-27, 17-35, 5-34; UniProt P60022 33-68, looked up)	0.004	60 to 500	potent bactericidal activity	potent bactericidal activity	exhibited antibiotic activity	exhibited antibiotic activity	exhibited antibiotic activity	–	–	–	–	–
B1	–	–	–	–	–	–	–	active	substantially diminished and lost	substantially diminished and lost	active	active

— patent publication US6399370B1, “Compositions and methods for use of defensin” (priority 1996, dated 2002)
